Source: US6935334B2, “Enhancing therapeutic effectiveness of nitric oxide inhalation” (The General Hospital Corporation, priority 2000, dated 2005)

Assays:
[1] = tested on: hypoxic pulmonary vasoconstriction (HPV) in mice; experiment: Redistribution of pulmonary blood flow (QLPA/QPA) after left mainstem bronchus occlusion (LMBO), murine HPV model; type: in vivo, mouse
Method: Group 3: endotoxin-treated+L-NIL. SV129/B6F1 wild-type mice (n=5) were injected intraperitoneally with 10 mg/kg E. coli 011B4 endotoxin dissolved in 0.2 mL saline. Three hours after the endotoxin challenge, mice were treated with L-NIL 5 mg/kg intraperitoneally. Studies were performed 22 hours after the endotoxin challenge. In additional SV129/B6F1 mice with (n=5) and without (n=4) a prior challenge of endotoxin (22 hours earlier), the acute response to an intravenous bolus of 5 mg/kg L-NIL administered during LMBO, was studied.
Group 4: prolonged exposure to 4 or 40 ppm NO. Saline-treated SV129 wild-type mice (n=5) and NOS2-deficient mice (n=5) breathed 40 ppm NO in air for 22 hours and were studied 1 hour after discontinuation of NO inhalation. SV129 wild-type mice (n=5) and NOS2-deficient mice (n=5) breathed 40 ppm NO in air for 22 hours after challenge with 10 mg/kg endotoxin intraperitoneally and were studied 1 hour after discontinuation of NO inhalation. Additional NOS2-deficient mice (n=4) breathed 4 ppm of NO in air for 22 hours after challenge with 10 mg/kg endotoxin intraperitoneally and were studied 1 hour after discontinuation of NO inhalation.
Experimental preparation. Mice were anesthetized by intraperitoneal injection of ketamine (0.1 mg/g body weight [bw]). Tracheostomy and arterial catheterization were performed as described previously (Steudel et al., 1997, Circ. Res. 81:34-41). A custom-made endotracheal tube (22G Angiocath; Becton Dickinson Healthcare Systems, Sandy, Utah, USA), combined with a 2 French Fogarty arterial embolization catheter (Baxter Healthcare Corp., Irvine, Calif., USA) was inserted into the trachea, with the balloon tip of the Fogarty catheter initially remaining in the trachea. Volume-controlled ventilation was initiated at a respiratory rate of 110-120 breaths per minute, at FiO2 1.0, a peak inspiratory pressure of 13 cm H2O, and a positive end-expiratory pressure level of 2-3 cm H2O. A right parasternal thoracotomy was performed, and a small-vessel ultrasonic flow probe (1RB; Transonic Instruments, Ithaca, N.Y.) was placed around the right pulmonary artery and fixed in position using a micromanipulator (X-tra Hand; TechniTool, Plymouth, Pa.). A 4-0 silk suture was positioned around the left main pulmonary artery to allow transient vascular occlusion. A pulmonary artery catheter (PE10) was inserted into the main pulmonary artery by direct puncture. In other experiments, a lower thoracic aortic flow probe was placed as reported previously (Steudel et al., supra).
Blood flow and pressure measurements. Mean systemic arterial pressure (PSA), mean pulmonary artery pressure (PPA), and in some studies PLA, were continuously monitored using biomedical amplifiers (Hewlett Packard 8805C, Palo Alto, Calif.; Siemens Sirecust 960, Danvers, Mass.). Mean lower thoracic aortic flow (QLTAF) and right pulmonary artery flow (QRPA) were measured with small vessel flow probes connected to a flowmeter (T106; Transonic Instruments). In some experiments, left ventricular end-diastolic pressure was measured with a 1.4 Fr. Millar catheter. The catheter was advanced through the right carotid artery into the left ventricle. […] All monitoring equipment was calibrated before each experiment.
Differential measurement of left and right pulmonary artery flow. To assess the contribution of QRPA and left pulmonary artery flow (QLPA) to total pulmonary artery flow (QPA), transient occlusion (90 seconds) of the left pulmonary artery (QLPA) was performed. QRPA during acute left pulmonary artery occlusion was considered to be QPA (i.e., cardiac output) and correlated closely (r2=0.88; y=0.95x+0.38; n=9) with QLTAF. QLPA was calculated as the difference between QRPA during left pulmonary artery occlusion (QPA) and QRPA with a patent left pulmonary artery (QLPA=QPA−QRPA). Absolute values of respective flows were recorded, and the fractional distribution of flow to the right and left lungs (QRPA/QPA and QLPA/QPA) was calculated. […]

[2] = Wet-to-dry lung weight ratio after isolated lung perfusion (Example 1); type: in vivo, mouse; details: exposure to NO inhalation for 16 h
Method: Wet-to-Dry Lung Weight Ratio At the end of each experiment, both lungs, excluding hilar structures, were excised and weighed (wet weight). Thereafter, the lungs were dried in a microwave oven for 60 min, as previously described (Holzmann et al., supra), and then reweighed (dry weight). Wet-to-dry lung weight ratios were calculated by dividing the wet weight by the dry weight.

SMILES: [N]=O [NO, Nitric oxide]
- reduction of QLPA/QPA after LMBO ([1]; endotoxin-treated NOS2-deficient mice after prolonged inhalation of 40 ppm NO for 22 hours): 20±7%
- reduction of QLPA/QPA after LMBO ([1]; endotoxin-treated NOS2-deficient mice breathing 4 ppm NO for 22 hours): 62±2%
- reduction of QLPA/QPA after LMBO ([1]; endotoxin-treated wild-type mice breathing 40 ppm NO for 22 hours): 19±10%
- reduction of QLPA/QPA after LMBO ([1]; saline-treated NOS2-deficient mice after breathing 40 ppm NO for 22 hours, measured 1 hour later): 50±11%
- reduction of QLPA/QPA after LMBO ([1]; saline-treated wild-type mice after breathing 40 ppm NO for 22 hours, measured 1 hour later): 51±10%
- wet-to-dry lung weight ratio ([2]; lipopolysaccharide-pretreated NOS2-deficient mice): 5.1±0.2
- wet-to-dry lung weight ratio ([2]; lipopolysaccharide-pretreated wild-type mice): 4.9±0.1
- wet-to-dry lung weight ratio ([2]; untreated NOS2-deficient mice): 4.8±0.1
- wet-to-dry lung weight ratio ([2]; untreated wild-type mice): 4.5±0.3
